Measurements: patent US9512139B2, “Conformationally constrained, fully synthetic macrocyclic compounds” (POLYPHOR AG, priority 2009, dated 2016)
Where two headings read alike, the source gives them in different places.

Tests used:
[1] = Metabolic stability assay, human microsomes; assay type: in vitro ADME; settings: human, microsomes; for Metabolic Stability 60 min hum [% remain.]: 1 h
[2] = Metabolic stability assay, rat microsomes (values in parentheses); assay type: in vitro ADME; settings: value in parentheses
[3] = Pharmacokinetic study after single i.v. and p.o. administration in male SD rats; assay type: in vivo; settings: rat; for Cmax / Tmax / C0 / half-life / bioavailability: male, SD, plasma; for C0: extrapolated to tzero; for half-life: read-out: T1/2 (terminal) (converted)
Experimental: 5. Pharmacokinetic Study (PK) Analysis
Pharmacokinetic analyses after single intravenous (i.v.) and two different peroral (p.o.) administrations were performed for the test compounds. 240 grams (±10 gram) male SD rats were catheterized and used in the study. The vehicle, Solutol HS-15/0.9% saline (5:95), was added to give a final concentration of 0.33 mg/ml of the compounds for i.v. application, and 0.5 or 2.0 mg/ml for p.o. applications. The volumes used for applications were 3 ml/kg i.v. and 10 ml/kg p.o. resulting in a final dose of 1 mg/kg for the intravenous dose and 5 or 20 mg/kg for the peroral doses.
Blood samples were withdrawn via the catheter at 1) predose, 5, 15, 30, 60, 120, 240, and 480 minutes for the i.v. application and 2) predose, 15, 30, 60, 120, 240, 480 and 720 minutes for the p.o. applications. Plasma was prepared by centrifugation of heparinized whole blood. Plasma samples (˜120 μl each time point, Li-Heparin, 20 IE/ml) were stored at −80° C. until HPLC-MSMS analysis.
Preparation of the Plasma Calibration Samples:
“Blank” rat plasma from untreated animals was used. Aliquots of plasma of 50 μL each were spiked with Internal Standard (ISTD) and with known amounts test compounds in order to obtain 11 plasma calibration samples in the range 0.25-4000 ng/mL.
Preparation of Plasma Samples:
To 50 μL of sample from treated animals 20 μL of internal standard were added. After mixing with 200 μL of acetonitrile, 2% HCOOH were added and each sample was vortexed for several seconds. Precipitated material was removed by centrifugation for 10 min (13200 rpm), the supernatant removed and dried under a constant flow of N2 (Porvair, MiniVap). To reconstitute the dried samples, 200 μL of [DMSO/acetonitrile/H2O, 4/4/2 (v/v/v)+2% HCOOH] were added and the sample was shaken for at least 5 minutes.
LC-MSMS Analysis of Samples:
Reconstituted samples were analysed by HPLC/MSMS on a reverse phase analytical column (BEH C18, 100×2.1 mm, 1.7 μm, Waters). Mobile phase A: H2O/acetonitrile (95:5, v:v) 0.1% formic acid, mobile phase B: Acetonitrile/H2O (95:5, v:v) 0.1% formic acid. Compounds were eluted from the column by using a gradient from 1% B to 60% B in 2.5 min.).
Pharmacokinetic Evaluation:
PK analysis was performed on mean values (generally n=3) using WinNonLin software (Version 5.3, Pharsight Corporation). The area under the curve AUC was calculated by the linear trapezoidal rule (linear interpolation, uniform weighting). AUC(t-∞) was estimated as Ct/b (b: elimination rate constant). […] the sum of AUC(0-t) and AUC(t-∞). Elimination half-life was calculated by the linear regression on at least three data points during the elimination phase. The time intervals selected for the half-life determinations were evaluated by the correlation coefficient (r^2), which should be at least above 0.85 and ideally above 0.96.
In case of i.v. administration the initial concentration at tzero was determined by extrapolation of the curve through the first two time points. Finally bioavailability after p.o. administration was calculated from the dose normalized AUC(0-∞) ration after p.o. versus i.v. administration.

in vitro [4] = assay type: in vitro ADME, human; settings: human, plasma, 10 µM; for Plasma Stability 240 min hum [% remain.]: 4 h
Experimental: Example compounds were dissolved in DMSO/H2O 90:10 to a final concentration of 10 mM for plasma stability determination and metabolic stability determination.
Human plasma (3-5 donors, Blutspendedienst SRK, Basel) and CD-1 mouse plasma (mixed gender pool >50 animals, Innovative Research, CA, USA) are both sodium citrate stabilized. The assay is performed in triplicates at 10 μM compound concentration and 37° C. Samples are taken at 0, 15, 60, and 240 minutes and stopped by precipitation with 2 volumes of acetonitrile. The supernatant is collected, evaporated and reconstituted in a 5% acetonitrile solution to be analyzed by HPLC/MS/MS. The resulting peak area counts are expressed in percent of the 0 value and used to determine the endpoint stability in % and the half life in minutes. In order to monitor assay integrity the degradation of propantheline is assayed with every experimental set.

in vitro [5] = assay type: in vitro ADME, mouse; settings: both, CD-1, mouse, plasma, 10 µM; for Plasma Stability 240 min mouse [% remain.]: 4 h
[6] = Metabolic stability assay, CD-1 mouse microsomes; assay type: in vitro ADME; settings: both, CD-1, mouse, microsomes, 10 µM; for Metabolic Stability 60 min mouse [% remain.]: 1 h
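For Plasma Stability 240 min mouse [% remain.] in this document: sodium citrate stabilized mouse plasma, parent compound quantified by HPLC/MS/MS relative to its peak area at time zero, run in triplicate.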
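For Plasma Stability T½ [min] mouse in this document: sodium citrate stabilized mouse plasma, parent compound quantified by HPLC/MS/MS relative to its peak area at time zero, run in triplicate.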

CN1CCC[C@H](N)C(=O)N2C[C@@H](OCc3ccccc3)C[C@H]2COc2cccc(c2)C1=O [Ex. 568, (4S,6S,10S)-10-amino-6-(benzyloxy)-14-methyl-2-oxa-8,14-diazatricyclo[14.3.1.0^4,8]icosa-1(20),16,18-triene-9,15-dione]
Metabolic Stability T½ [min] hum ([1]; both, 10 µM): > 60 min | Metabolic Stability 60 min hum [% remain.] ([1]; both, 10 µM): 53 % remain. | Metabolic Stability 60 min (rat) [% remain.] [2]: 57 % remain. | Metabolic Stability T½ [min] (rat) [2]: 60 (60) min | Cmax ([3]; iv, 1 mg/kg): 195 ng/mL | Tmax ([3]; iv, 1 mg/kg): 0.08 h | C0 ([3]; iv, 1 mg/kg): 285 ng/mL | half-life ([3]; iv, 1 mg/kg): 1.67 h | Cmax ([3]; po, 5 mg/kg): 64.3 ng/mL | Tmax ([3]; po, 5 mg/kg): 0.25 h | bioavailability ([3]; po, 5 mg/kg): 17.8% | half-life ([3]; po, 5 mg/kg): 1.92 h | Cmax ([3]; po, 20 mg/kg): 380 ng/mL | Tmax ([3]; po, 20 mg/kg): 0.25 h | bioavailability ([3]; po, 20 mg/kg): 21.6% | half-life ([3]; po, 20 mg/kg): 2.07 h | AUC(t-∞) dose normalized ([3]; iv, 1 mg/kg): 167.93 kg·ng·h/mL/mg | Cmax dose normalized ([3]; iv, 1 mg/kg): 194.67 kg·ng/mL/mg | V (terminal) ([3]; iv, 1 mg/kg): 14.32056 L/kg | AUC(t-∞) dose normalized ([3]; po, 5 mg/kg): 29.83 kg·ng·h/mL/mg | Cmax dose normalized ([3]; po, 5 mg/kg): 12.87 kg·ng/mL/mg | AUC(t-∞) dose normalized ([3]; po, 20 mg/kg): 36.22 kg·ng·h/mL/mg | Cmax dose normalized ([3]; po, 20 mg/kg): 18.98 kg·ng/mL/mg | Plasma Stability T½ [min] hum (in vitro [4]): > 240 min | Plasma Stability 240 min hum [% remain.] (in vitro [4]): 97 % remain. | Plasma Stability T½ [min] mouse (in vitro [5]): > 240 min | Plasma Stability 240 min mouse [% remain.] (in vitro [5]): 89 % remain. | Metabolic Stability T½ [min] mouse [6]: > 60 min | Metabolic Stability 60 min mouse [% remain.] [6]: 60 % remain.

CN1CCC[C@H](N)C(=O)N2C[C@@H](Oc3ccccc3)C[C@H]2COc2cccc(c2)C1=O [Ex. 561, (4S,6S,10S)-10-amino-14-methyl-6-phenoxy-2-oxa-8,14-diazatricyclo[14.3.1.0^4,8]icosa-1(20),16,18-triene-9,15-dione]
half-life at 10 µM ([1]; both sexes): 0.65 h | Metabolic Stability 60 min hum [% remain.] ([1]; both, 10 µM): 42 % remain. | Metabolic Stability 60 min (rat) [% remain.] [2]: 53 % remain. | half-life at 10 µM ([2]; read-out: Metabolic Stability T½ [min] (rat)): 56 min | Cmax ([3]; iv, 1 mg/kg): 184 ng/mL | Tmax ([3]; iv, 1 mg/kg): 0.08 h | C0 ([3]; iv, 1 mg/kg): 240 ng/mL | half-life ([3]; iv, 1 mg/kg): 2.11 h | Cmax ([3]; po, 5 mg/kg): 67 ng/mL | Tmax ([3]; po, 5 mg/kg): 0.5 h | bioavailability ([3]; po, 5 mg/kg): 10.9% | half-life ([3]; po, 5 mg/kg): 3 h | Cmax ([3]; po, 20 mg/kg): 248 ng/mL | Tmax ([3]; po, 20 mg/kg): 0.25 h | bioavailability ([3]; po, 20 mg/kg): 16.8% | half-life ([3]; po, 20 mg/kg): 2.71 h | AUC(t-∞) dose normalized ([3]; iv, 1 mg/kg): 219.89 kg·ng·h/mL/mg | Cmax dose normalized ([3]; iv, 1 mg/kg): 183.67 kg·ng/mL/mg | V (terminal) ([3]; iv, 1 mg/kg): 13.8314 L/kg | AUC(t-∞) dose normalized ([3]; po, 5 mg/kg): 24.00 kg·ng·h/mL/mg | Cmax dose normalized ([3]; po, 5 mg/kg): 13.40 kg·ng/mL/mg | AUC(t-∞) dose normalized ([3]; po, 20 mg/kg): 36.88 kg·ng·h/mL/mg | Cmax dose normalized ([3]; po, 20 mg/kg): 12.40 kg·ng/mL/mg | Plasma Stability T½ [min] hum (in vitro [4]): > 240 min | Plasma Stability 240 min hum [% remain.] (in vitro [4]): 99 % remain. | Plasma Stability T½ [min] mouse (in vitro [5]): > 240 min | Plasma Stability 240 min mouse [% remain.] (in vitro [5]): 100 % remain. | Metabolic Stability T½ [min] mouse [6]: > 60 min | Metabolic Stability 60 min mouse [% remain.] [6]: 79 % remain.
